{"source": "patent US8524746B2", "about": "“Dosage regimen for COMT inhibitors” (Bial-Portela & Ca., S.A., priority 2007, dated 2013)", "key": {"[1]": {"assay": "Brain levels of L-DOPA and its derivatives in rats treated with L-DOPA plus benserazide", "format": "in vivo, rat", "conditions": "3 mg/kg oral"}, "[2]": {"conditions": "3 mg/kg oral"}, "liver COMT": {"tested_on": "liver COMT", "conditions": "rat, 3 mg/kg oral; for inhibition of liver COMT activity nine hours after administration: 9 h", "description": "Livers from 60 day old male Wistar rats weighing 240-260 g (Harlan-Interfauna Ibérica, Barcelona, Spain), kept two per cage under controlled environmental conditions (12 h light/dark cycle and room temperature 24° C.) were used in all experiments. After decapitation, the organs were immediately removed and homogenised in 5 mM phosphate buffer of pH 7.8. COMT activity was evaluated by the ability to methylate adrenaline to metanephrine. […] The preincubation and incubation were carried out at 37° C. under conditions of light protection with continuous shaking and without oxygenation.\nIn experiments designed to evaluate the oral bioavailability of test substances, compounds were given by gastric tube to overnight fasted rats. Thereafter, at defined intervals, animals were killed by decapitation and livers removed and used to determine COMT activity as described above. At the end of the incubation period (5 min) the tubes were transferred to ice and the reaction was stopped by the addition of 200 μl of 2 M perchloric acid. The samples were then centrifuged (200×g, 4 min, 4° C.), and 500 μl aliquots of the supernatant, filtered on 0.22 μm pore size Spin-X filter tubes (Costar) were used for the assay of metanephrine. The assay of metanephrine was carried out by means of high pressure liquid chromatography with electrochemical detection. The lower limits for detection of metanephrine ranged from 350 to 500 fmol (0.5 to 1.0 μmol/mg protein/h)."}, "[3]": {"conditions": "L-DOPA plus benserazide, inhibitor given 24 h in advance"}, "[4]": {"conditions": "L-DOPA 12 mg/kg plus benserazide 3 mg/kg, all pre-treatment times (1, 7 and 24 h)"}}, "note": "Where two headings read alike, the source gives them in different places.", "data": [{"smiles": "Cc1ccc(C(=O)c2cc(O)c(O)c([N+](=O)[O-])c2)cc1", "note": "[tolcapone, 3,4-dihydroxy-4′-methyl-5-nitrobenzophenone]", "values": [{"measurement": "brain L-DOPA", "setting": "[1]; L-DOPA plus benserazide, 2 and 7 h after administration", "result": "Significant changes"}, {"measurement": "brain 3-O-methyl-L-DOPA", "setting": "[1]; [3]", "result": "not affected"}, {"measurement": "brain DOPAC", "setting": "[1]; [3]", "result": "not affected"}, {"measurement": "brain L-DOPA", "setting": "[1]; [3]", "result": "not affected"}, {"measurement": "brain dopamine", "setting": "[1]; [3]", "result": "not affected"}, {"measurement": "plasma 3-O-methyl-L-DOPA", "setting": "[2]; [3]", "result": "not affected"}, {"measurement": "plasma L-DOPA", "setting": "[2]; [3]", "result": "not affected"}, {"measurement": "time to maximal inhibitory effect on liver COMT", "setting": "liver COMT", "result": "≤ 30", "unit": "min"}, {"measurement": "inhibition of liver COMT activity nine hours after administration", "setting": "liver COMT", "result": "minimal inhibitory effects"}, {"measurement": "inhibition of liver COMT activity 24 hours after administration", "setting": "liver COMT", "result": "almost devoid of COMT inhibitory properties"}]}, {"smiles": "Cc1c(Cl)c(C)[n+]([O-])c(Cl)c1-c1noc(-c2cc(O)c(O)c([N+](=O)[O-])c2)n1", "note": "[Compound A, 5-[3-(2,5-dichloro-4,6-dimethyl-1-oxy-pyridin-3-yl)-[1,2,4]oxadiazol-5-yl]-3-nitrobenzene-1,2-diol]", "values": [{"measurement": "brain 3-O-methyl-L-DOPA", "setting": "[1]; [4]", "result": "marked decrease"}, {"measurement": "brain DOPAC", "setting": "[1]; [4]", "result": "significant increases"}, {"measurement": "brain L-DOPA", "setting": "[1]; [4]", "result": "significant increases"}, {"measurement": "brain dopamine", "setting": "[1]; [4]", "result": "significant increases"}, {"measurement": "circulating (plasma) 3-O-methyl-L-DOPA", "setting": "[2]; [4]", "result": "marked decrease"}, {"measurement": "plasma L-DOPA", "setting": "[2]; [4]", "result": "significant increases"}, {"measurement": "time to maximal inhibitory effect on liver COMT", "setting": "liver COMT", "result": "≤ 60", "unit": "min"}, {"measurement": "inhibition of liver COMT activity nine hours after administration", "setting": "liver COMT", "result": "90 % of control levels"}, {"measurement": "inhibition of liver COMT activity 24 hours after administration", "setting": "liver COMT", "result": "60 % of controls levels"}]}]}
